Where two headings read alike, the source gives them in different places.
Assays:
[1] = tested on: symmetric di-methyl arginine in Z-138 cells; assay: Z-138 Methylation Assay (In Cell Western for symmetric di-methyl arginine and DNA content); format: cell-based; details: read-out: ICW EC50
Source text: [formula] Where top and bottom are the normally allowed to float, but may be fixed at 100 or 0 respectively in a 3-parameter fit. The Hill Coefficient normally allowed to float but may also be fixed at 1 in a 3-parameter fit. Y is the % inhibition and X is the compound concentration. Z-138 Methylation Assay
Z-138 suspension cells were purchased from ATCC (American Type Culture Collection, Manassas, Va.). RPMI/Glutamax medium, penicillin-streptomycin, heat inactivated fetal bovine serum, and D-PBS were purchased from Life Technologies, Grand Island, N.Y., USA. Odyssey blocking buffer, 800CW goat anti-rabbit IgG (H+L) antibody, and Licor Odyssey infrared scanner were purchased from Licor Biosciences, Lincoln, Nebr., USA. Symmetric di-methyl arginine antibody was purchased from EMD Millipore, Billerica, Mass., USA. 16% Paraformaldehyde was purchased from Electron Microscopy Sciences, Hatfield, Pa., USA.
Z-138 suspension cells were maintained in growth medium (RPMI 1640 supplemented with 10% v/v heat inactivated fetal bovine serum and 100 units/mL penicillin-streptomycin) and cultured at 37° C. under 5% CO2.
Cell Treatment, in Cell Western (ICW) for Detection of Symmetric Di-Methyl Arginine and DNA Content.
Z-138 cells were seeded in assay medium at a concentration of 50,000 cells per mL to a 384-well cell culture plate with 50 μL per well. Compound (100 nL) from 384 well source plates was added directly to 384 well cell plate. Plates were incubated at 37° C., 5% CO2 for 96 hours. After four days of incubation, 40 μL of cells from incubated plates were added to poly-D-lysine coated 384 well culture plates (BD Biosciences 356697). Plates were incubated at room temperature for 30 minutes then incubated at 37° C., 5% CO2 for 5 hours. After the incubation, 40 μL per well of 8% paraformaldehyde in PBS (16% paraformaldahyde was diluted to 8% in PBS) was added to each plate and incubated for 30 minutes. Plates were transferred to a Biotek 405 plate washer and washed 5 times with 100 μL per well of wash buffer (1×PBS with 0.1% Triton X-100 (v/v)). Next 30 μL per well of Odyssey blocking buffer were added to each plate and incubated 1 hour at room temperature. Blocking buffer was removed and 20 μL per well of primary antibody was added (symmetric di-methyl arginine diluted 1:100 in Odyssey buffer with 0.1% Tween 20 (v/v)) and plates were incubated overnight (16 hours) at 4° C. Plates were washed 5 times with 100 μL per well of wash buffer. Next 20 μL per well of secondary antibody was added (1:200 800CW goat anti-rabbit IgG (H+L) antibody, 1:1000 DRAQ5 (Biostatus limited) in Odyssey buffer with 0.1% Tween 20 (v/v)) and incubated for 1 hour at room temperature. The plates were washed 5 times with 100 μL per well wash buffer then 1 time with 100 μL per well of water. Plates were allowed to dry at room temperature then imaged on the Licor Odyssey machine which measures integrated intensity at 700 nm and 800 nm wavelengths. Both 700 and 800 channels were scanned.
First, the ratio for each well was determined by:
Each plate included fourteen control wells of DMSO only treatment (minimum inhibition) as well as fourteen control wells for maximum inhibition treated with 3 μM of a reference compound (Background wells). The average of the ratio values for each control type was calculated and used to determine the percent inhibition for each test well in the plate. Reference compound was serially diluted three-fold in DMSO for a total of nine test concentrations, beginning at 3 μM. Percent inhibition was determined and IC50 curves were generated using triplicate wells per concentration of compound. […]

Z-138 cell line = assay: Z-138 Proliferation Assay (Cell Titer Glo, 5 days); format: cell-based; details: Z-138 cells
Source text: [formula] Z-138 Proliferation Assay
Z-138 suspension cells were purchased from ATCC (American Type Culture Collection, Manassas, Va.). RPMI/Glutamax medium, penicillin-streptomycin, heat inactivated fetal bovine serum were purchased from Life Technologies, Grand Island, N.Y., USA. V-bottom polypropylene 384-well plates were purchased from Greiner Bio-One, Monroe, N.C., USA. Cell culture 384-well white opaque plates were purchased from Perkin Elmer, Waltham, Mass., USA. Cell-Titer Glo® was purchased from Promega Corporation, Madison, Wis., USA. SpectraMax M5 plate reader was purchased from Molecular Devices LLC, Sunnyvale, Calif., USA.
Z-138 suspension cells were maintained in growth medium (RPMI 1640 supplemented with 10% v/v heat inactivated fetal bovine serum and cultured at 37° C. under 5% CO2 Under assay conditions, cells were incubated in assay medium (RPMI 1640 supplemented with 10% v/v heat inactivated fetal bovine serum and 100 units/mL penicillin-streptomycin) at 37° C. under 5% CO2.
For the assessment of the effect of compounds on the proliferation of the Z-138 cell line, exponentially growing cells were plated in 384-well white opaque plates at a density of 10,000 cells/ml in a final volume of 50 μl of assay medium. A compound source plate was prepared by performing triplicate nine-point 3-fold serial dilutions in DMSO, beginning at 10 mM (final top concentration of compound in the assay was 20 μM and the DMSO was 0.2%). A 100 nL aliquot from the compound stock plate was added to its respective well in the cell plate. […] After addition of compounds, assay plates were incubated for 5 days at 37° C., 5% CO2, relative humidity >90%.
Cell viability was measured by quantitation of ATP present in the cell cultures, adding 35 μl of Cell Titer Glo® reagent to the cell plates. Luminescence was read in the SpectraMax M5 microplate reader. The concentration of compound inhibiting cell viability by 50% was determined using a 4-parametric fit of the normalized dose response curves.

PRMT5/MEP50 = PRMT5/MEP50 (Homo sapiens (Human), UniProt O14744); assay: PRMT5 Biochemical Assay (PRMT5/MEP50 enzyme assay on peptide substrate, 3H-SAM Flashplate)
Chain of PRMT5/MEP50 (O14744 other isoform, or with tags, fused parts or gaps): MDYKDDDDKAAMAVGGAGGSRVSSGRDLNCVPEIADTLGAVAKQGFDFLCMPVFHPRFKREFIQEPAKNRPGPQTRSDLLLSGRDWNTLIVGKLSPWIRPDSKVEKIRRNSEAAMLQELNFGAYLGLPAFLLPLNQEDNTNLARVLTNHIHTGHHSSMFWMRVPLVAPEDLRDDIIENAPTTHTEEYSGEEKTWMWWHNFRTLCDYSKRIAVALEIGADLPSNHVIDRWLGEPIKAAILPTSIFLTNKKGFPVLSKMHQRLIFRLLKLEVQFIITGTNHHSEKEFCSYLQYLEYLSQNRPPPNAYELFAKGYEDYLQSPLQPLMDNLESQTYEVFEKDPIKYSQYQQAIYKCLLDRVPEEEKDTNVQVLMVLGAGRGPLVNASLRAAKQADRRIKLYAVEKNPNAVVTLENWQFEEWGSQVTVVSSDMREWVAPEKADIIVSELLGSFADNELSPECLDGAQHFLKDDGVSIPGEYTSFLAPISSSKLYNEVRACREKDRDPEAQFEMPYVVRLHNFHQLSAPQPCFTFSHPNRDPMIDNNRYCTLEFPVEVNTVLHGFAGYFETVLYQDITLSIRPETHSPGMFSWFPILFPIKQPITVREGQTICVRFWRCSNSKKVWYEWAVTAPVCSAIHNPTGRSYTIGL
Chain of PRMT5/MEP50 (Q9BQA1 other isoform, or with tags, fused parts or gaps partner): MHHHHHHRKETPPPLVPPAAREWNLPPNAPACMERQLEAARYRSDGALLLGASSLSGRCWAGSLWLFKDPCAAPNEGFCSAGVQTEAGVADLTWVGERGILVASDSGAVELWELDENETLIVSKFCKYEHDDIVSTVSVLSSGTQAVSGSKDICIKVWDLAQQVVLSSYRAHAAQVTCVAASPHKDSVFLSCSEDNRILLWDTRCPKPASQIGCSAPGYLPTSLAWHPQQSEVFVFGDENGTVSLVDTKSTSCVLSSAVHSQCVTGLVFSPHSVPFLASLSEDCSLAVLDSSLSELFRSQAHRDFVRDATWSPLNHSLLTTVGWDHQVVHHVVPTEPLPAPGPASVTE

[2] = Homo sapiens, Z-138, Z-138 cells
[3] = PRMT5 biochemical assay, read-out: Biochemical IC50

Row | Compound | EC50 [1, 2] [µM] | IC50 (PRMT5/MEP50; [3]) [µM] | EC50 (Z-138 cell line; Homo sapiens, Z-138, 120 h) [µM] | EC50 ([1]; Z-138 cells) [µM] | EC50 (Z-138 cell line) [µM] | IC50 (PRMT5/MEP50) [µM]
1 | CC(Oc1ccccc1[C@H]1CCCNC1)C(=O)NC[C@@H](O)CN1CCc2ccccc2C1 (stereo partly drawn) [Compound 205] | > 1 | 1 to 10 | 10 to 50 |  |  | 
2 | CC(=O)Nc1cccc(OCC(=O)NC[C@@H](O)CN2CCc3ccccc3C2)c1C1CCCNC1 (stereo partly drawn) [Compound 199] | > 1 | 1 to 10 | > 20 |  |  | 
3 | O=C(COc1ccccc1S(=O)(=O)N1CCNC(CO)C1)NC[C@@H](O)CN1CCc2ccccc2C1 (stereo partly drawn) [Compound 217] | 0.101 to 1 | 0.101 to 1 | > 20 |  |  | 
4 | N-(3-(3,4-dihydroisoquinolin-2(1H)-yl)-2-hydroxypropyl)-2-((1-(1-methylpiperidin-4-yl)-1H-indazol-5-yl)oxy)acetamide [Compound 71] |  | < 0.1 |  | 0.101 to 1 | > 20 | 
5 | NC1CCN(S(=O)(=O)c2ccccc2OCC(=O)NC[C@@H](O)CN2CCc3ccccc3C2)C1 (stereo partly drawn) [Compound 221] | 0.101 to 1 | < 0.1 | 10 to 50 |  |  | 
6 | N-(3-(3,4-dihydroisoquinolin-2(1H)-yl)-2-hydroxypropyl)-2-((1-(piperidin-4-yl)-1H-indazol-5-yl)oxy)acetamide [Compound 70] |  | < 0.1 |  | 0.101 to 1 | > 20 | 
7 | O=C(COc1cccc(N2CCNCC2)c1)NC[C@@H](O)CN1CCc2ccccc2C1 [Compound 197] | 0.101 to 1 | < 0.1 | 10 to 50 |  |  | 
8 | Cn1cnc(-c2cccc(OCC(=O)NC[C@@H](O)CN3CCc4ccccc4C3)c2)c1 [Compound 234] | > 1 | 0.101 to 1 | > 20 |  |  | 
9 | CN1CCC(CN(C)S(=O)(=O)c2ccccc2OCC(=O)NC[C@@H](O)CN2CCc3ccccc3C2)C1 (stereo partly drawn) [Compound 238] | < 0.1 | < 0.1 | 0.101 to 1 |  |  | 
10 | O=C(COc1ccccc1[C@H]1CCCNC1)NC[C@@H](O)CN1CCc2ccccc2C1 [Compound 263] | 0.101 to 1 | 0.101 to 1 | 10 to 50 |  |  | 
11 | CC1CNCCN1S(=O)(=O)c1ccccc1OCC(=O)NC[C@@H](O)CN1CCc2ccccc2C1 (stereo partly drawn) [Compound 202] | 0.101 to 1 | < 0.1 | 10 to 50 |  |  | 
12 | Cn1cnc(CCNC(=O)c2cccc(OCC(=O)NC[C@@H](O)CN3CCc4ccccc4C3)c2)c1 [Compound 218] | > 1 | 0.101 to 1 | > 20 |  |  | 
13 | Cn1c(CCC(=O)NC[C@H](O)CN2CCc3ccccc3C2)nc2ccccc21 [Compound 222] | 0.101 to 1 | 0.101 to 1 | 1 to 10 |  |  | 
14 | CC1CN(S(=O)(=O)c2ccccc2OCC(=O)NC[C@@H](O)CN2CCc3ccccc3C2)CCN1 (stereo partly drawn) [Compound 210] | 0.101 to 1 | 0.101 to 1 | 10 to 50 |  |  | 
15 | CC1CN(C)CCN1S(=O)(=O)c1ccccc1OCC(=O)NC[C@@H](O)CN1CCc2ccccc2C1 (stereo partly drawn) [Compound 203] | 0.101 to 1 | 0.101 to 1 | > 20 |  |  | 
16 | CNCCN(C)S(=O)(=O)c1ccccc1OCC(=O)NC[C@@H](O)CN1CCc2ccccc2C1 [Compound 201] | < 0.1 | < 0.1 | 1 to 10 |  |  | 
17 | CN(C[C@@H](O)CN1CCc2ccccc2C1)C(=O)CCc1nc2ccccc2[nH]1 [Compound 209] | 0.101 to 1 | 0.101 to 1 | 10 to 50 |  |  | 
18 | [2H]C1([2H])Cc2ccccc2C([2H])([2H])N1C[C@H](O)CNC(=O)COc1cccc2cccnc12 [Compound 269] | 0.101 to 1 |  | > 5 |  |  | 0.101 to 1
19 | CN(C[C@H](O)CN1CCc2ccccc2C1)C(=O)CCc1nc2ccccc2[nH]1 [Compound 228] | < 0.1 | < 0.1 | 0.101 to 1 |  |  | 
20 | O=C(CCc1nc2cc(F)ccc2[nH]1)NC[C@@H](O)CN1CCc2ccccc2C1 [Compound 213] | 0.101 to 1 | 0.101 to 1 | > 20 |  |  | 
21 | O=C(CCc1nc2ccccc2o1)NC[C@@H](O)CN1CCc2ccccc2C1 [Compound 200] | > 1 | 1 to 10 | > 20 |  |  | 
22 | Cn1cncc1CCNC(=O)c1cccc(OCC(=O)NC[C@@H](O)CN2CCc3ccccc3C2)c1 [Compound 231] | > 1 | 0.101 to 1 | > 20 |  |  | 

The next lines start with results.

Row | EC50 [1, 2] [µM] | IC50 (PRMT5/MEP50; [3]) [µM] | Compound | EC50 (Z-138 cell line; Homo sapiens, Z-138, 120 h) [µM] | EC50 ([1]; Z-138 cells) [µM] | EC50 (Z-138 cell line) [µM] | IC50 (PRMT5/MEP50) [µM]
23 | < 0.1 | < 0.1 | COc1cccc2[nH]c(CCC(=O)NC[C@H](O)CN3CCc4ccccc4C3)nc12 [Compound 242] | 1 to 10 |  |  | 
24 | 0.101 to 1 | 0.101 to 1 | CN1CCCCC1c1ccccc1OCC(=O)NCC(O)CN1CCc2ccccc2C1 (stereo not drawn) [Compound 258] | 1 to 10 |  |  | 
25 | > 1 | < 0.1 | COCCNCCNC(=O)c1cccc(OCC(=O)NC[C@@H](O)CN2CCc3ccccc3C2)c1 [Compound 244] | > 20 |  |  | 
26 | 0.101 to 1 | 0.101 to 1 | Cn1cncc1-c1cccc(OCC(=O)NC[C@@H](O)CN2CCc3ccccc3C2)c1 [Compound 255] | > 20 |  |  | 
27 | > 1 | 0.101 to 1 | CS(=O)(=O)Nc1cccc(OCC(=O)NC[C@@H](O)CN2CCc3ccccc3C2)c1C1CCCNC1 (stereo partly drawn) [Compound 265] | > 20 |  |  | 
28 | > 1 | 0.101 to 1 | Cn1ccnc1CCNC(=O)c1cccc(OCC(=O)NC[C@@H](O)CN2CCc3ccccc3C2)c1 [Compound 245] | > 20 |  |  | 
29 | 0.101 to 1 | 0.101 to 1 | Cn1cc(-c2ccccc2)nc1CCC(=O)NC[C@H](O)CN1CCc2ccccc2C1 [Compound 256] | > 20 |  |  | 
30 | < 0.1 | < 0.1 | O=C(CCc1nc(-c2ccccc2)c[nH]1)NC[C@H](O)CN1CCc2ccccc2C1 [Compound 243] | 1 to 10 |  |  | 
31 | 0.101 to 1 | < 0.1 | CN(C)C1CCN(S(=O)(=O)c2ccccc2OCC(=O)NC[C@@H](O)CN2CCc3ccccc3C2)C1 (stereo partly drawn) [Compound 273] | 10 to 50 |  |  | 
32 | < 0.1 | < 0.1 | CN(C)S(=O)(=O)c1c(OCC(=O)NC[C@@H](O)CN2CCc3ccccc3C2)cccc1N1CCN(C2CC2)CC1 [Compound 278] | < 0.1 |  |  | 
33 | 0.101 to 1 | 0.101 to 1 | Cn1ccnc1CCC(=O)NC[C@H](O)CN1CCc2ccccc2C1 [Compound 259] | > 20 |  |  | 
34 | < 0.1 | < 0.1 | CC1CN(c2cccc(OCC(=O)NC[C@@H](O)CN3CCc4ccccc4C3)c2S(=O)(=O)N(C)C)CCN1 (stereo partly drawn) [Compound 276] | < 0.1 |  |  | 

Source: patent US9745291B2, “PRMT5 inhibitors containing a dihydro- or tetrahydroisoquinoline and uses thereof” (Epizyme, Inc., priority 2012, dated 2017)
